Results on 35 molecules are retold here after patent US20240368168A1, “SARM1 ENZYME ACTIVITY INHIBITOR AND APPLICATION THEREOF” (ARTIVILA BIOPHARMA, priority 2021, published 2024).

The structures appear in SMILES notation.

Test [1] concerns the target T1, SARM1 protein in iSARM1 (HEK293) cells (Homo sapiens, UniProt Q6SZW1).
T1 construct: The full-length SARM1 was synthesized into the pUC57 plasmid by WZ Biosciences Inc., and PCR was performed using pUC57-SARM1 as a DNA template
T1 sequence (Q6SZW1 28-724): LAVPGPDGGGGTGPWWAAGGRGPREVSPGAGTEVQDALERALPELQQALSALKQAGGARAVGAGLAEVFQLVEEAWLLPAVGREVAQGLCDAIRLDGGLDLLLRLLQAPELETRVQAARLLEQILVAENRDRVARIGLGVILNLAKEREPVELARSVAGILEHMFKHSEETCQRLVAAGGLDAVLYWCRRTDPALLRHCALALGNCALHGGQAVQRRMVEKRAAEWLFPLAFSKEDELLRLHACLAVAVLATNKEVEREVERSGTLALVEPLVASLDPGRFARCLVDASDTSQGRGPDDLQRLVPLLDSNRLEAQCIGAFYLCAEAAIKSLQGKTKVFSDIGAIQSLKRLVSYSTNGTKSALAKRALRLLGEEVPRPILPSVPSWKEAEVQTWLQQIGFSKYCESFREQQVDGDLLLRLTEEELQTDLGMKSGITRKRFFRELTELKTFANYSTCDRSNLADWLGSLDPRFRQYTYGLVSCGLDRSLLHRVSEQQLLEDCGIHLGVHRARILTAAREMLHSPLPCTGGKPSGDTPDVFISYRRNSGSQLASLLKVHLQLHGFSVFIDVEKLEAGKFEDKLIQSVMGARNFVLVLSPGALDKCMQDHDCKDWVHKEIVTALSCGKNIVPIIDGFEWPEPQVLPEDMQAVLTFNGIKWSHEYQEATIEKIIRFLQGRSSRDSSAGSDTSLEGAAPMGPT
The test is described as follows: Inhibitory activity in inducible SARM1 overexpressing cell line, intracellular cADPR level. Format: cell-based. The note with it: activator CZ-48 100 μM, cADPR content. On the procedure:
In this example, the gene sequence of SARM1 was amplified using PCR, and constructed into pInducer20-neo plasmid. pInducer20-SARM1 virus was packaged in a liposome and infected HEK293 to obtain an inducible SARM1-overexpressing cell line, which was labeled as iSARM1 (HEK293). The specific preparation was as follows:
First, a 96-well culture plate was treated with 0.05 mg/ml polylysine for 5 minutes and washed once with PBS. 3×10^4 iSARM1 (HEK293) cells were plated into the 96-well plate and cultured overnight in a 37° C. and 5% incubator. The next day, the cells were added with an inhibitor with a final concentration of 50 μM, incubated in the incubator for 1.5 hours, added with activator CZ-48 with a final concentration of 100 μM, and incubated for 16 hours. Meanwhile, the cells without adding CZ-48 or without adding drug were set as control group. Finally, the intracellular cADPR level was detected to represent the activity of SARM1, and the inhibition rate of SARM1 in cells by 50 μM inhibitor was calculated.
The cADPR measurement was performed as follows. First, the cells were washed once with PBS, and added with 150 μl of pre-cooled 0.6M perchloric acid (PCA) to quickly lyse the cells and precipitate the protein. The PCA supernatant was transferred to a 1.5 ml centrifuge tube. The protein in the culture medium was dissolved again with 100 μl of 1M NaOH. The supernatant was added with 0.5 ml of organic reagent mixture (trioctylamine:chloroform=1:3) to extract PCA from water. After sufficient shaking, the mixture was centrifuged at 12,000 rpm for 10 minutes. The solution was divided into 3 layers: the upper aqueous phase, containing the small molecules of interest; the lower organic phase, in which PCA was dissolved; and a thin protein layer between the upper and lower layers. The upper layer was transferred to a new centrifuge tube, added with 1M Tris-Mg at a ratio of 1:100 (1M Tris (pH 8.0): 1M MgCl2=9:1), added with NADase at a ratio of 1:250, and treated at 37° C. overnight to remove NAD^+ from the mixed solution. After the treatment was completed, the mixed solution was filtered using Millipore's 10 K 96-well filter plate to remove NADase.
The cADPR content in the solution was determined through Cycling analysis method. The specific steps were as follows: 20 μl of the sample to be tested or the cADPR standard was taken and added to a 96-well opaque white plate. Preparation of reaction solution: 9.6 ml of PBS (pH 7.4), 200 μl of ethanol, 150 μl of 1 mg/ml AD, 10 μl of 10 mM FMN, 5 μl of 18 mg/ml Diaphorase, 10 μl of 10 mM Resazurin, and 100 μl of 1M Nam. Half of the reaction solution was divided and added with 0.2 μg/ml cyclase. The reaction solution without adding cyclase was used as control experiment. Each sample was divided into two groups, 3 replicates in each group. The reaction solutions containing or not containing cyclase were added to each group to perform the reaction. The reaction kinetic curve within 30 minutes was recorded (Ex:Em=544/599). The average slope of the reaction was calculated. Conversion was performed according to cADPR standard to obtain the accurate cADPR content. A curve of intracellular cADPR content vs corresponding inhibitor concentration was plotted. The half inhibitory concentration of the inhibitor was calculated.

The target of test [2] is T2, dN-SARM1 protein (Homo sapiens, UniProt Q6SZW1).
T2 construct: the N-terminal mitochondrial localization signal peptide of SARM1 was removed
T2 sequence (Q6SZW1 28-724): T1 sequence (Q6SZW1 28-724)
The test is described as follows: In vitro biochemical assay for inhibiting SARM1 enzymatic activity (IC50), PC6 fluorescence method. As to conditions: 50 μM NAD, 50 μM PC6, 50 μM NMN activator. An outline of the steps:
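dN-SARM1 (0.05 μg/ml, 50 mM Tris-HCl pH 7.5) preincubated 10 min at room temperature with compound in serial dilution from 200 μM. Reaction started with final 50 μM NAD, 50 μM PC6 substrate and 50 μM NMN activator, 30 min at room temperature. PC6 fluorescence (ex 390/em 520 nm) rate gives activity; IC50 derived.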

`C=CCN(C(=O)OC(C)(C)C)c1ccc2ncc(-c3cccc(NC(=O)C4CCOCC4)c3)n2c1` [Compound 213, tert-butyl allyl(3-(3-(tetrahydro-2H-pyran-4-carboxamido)phenyl)imidazo[1,2-a]pyridin-6-yl)carbamate] came in with an EC50 in test [1] below 1000 nM. This molecule gave an IC50 in test [2] of 1000 to 10000 nM.
In the same order, the values of `CC(C)(C)OC(=O)N(C/C=C/c1cccc(N)c1)c1ccc2ncc(-c3cccc(NC(=O)C4CCOCC4)c3)n2c1` [Compound 219] are 1000 to 10000 nM and 1000 to 10000 nM.
For `Nc1cccc(/C=C/CNc2ccc3ncc(-c4ccccc4)n3c2)c1` [Compound 220], in that order: 1000 to 10000 nM and 1000 to 10000 nM.
For `CC(C)(C)OC(=O)N(C/C=C/c1cccc(NC(=O)C2CCOCC2)c1)c1ccc2ncc(-c3ccccc3)n2c1` [Compound 221], in that order: below 1000 nM and 1000 to 10000 nM.
On to `O=C(Nc1cccc(-c2cnc3ccc(N4CCOCC4)cn23)c1)[C@H]1C[C@H](N2CCCCC2)C1` [Compound 227], for which the EC50 in test [1] is below 1000 nM. In test [2], this molecule registered an IC50 of 1000 to 10000 nM.
In test [1], `O=C(Nc1cccc(-c2cnc3ccc(N4CCOCC4)cn23)c1)[C@H]1C[C@@H](N2CCOCC2)C1` [Compound 230] gave an EC50 of 1000 to 10000 nM. In addition, in test [2], the IC50 fell in the range of 1000 to 10000 nM.
Consider `O=C(Nc1cccc(-c2cnc3ccc(N4CCOCC4)cn23)c1)[C@H]1C[C@H](N2CCOCC2)C1` [Compound 231], for which, in test [1], the EC50 lay in the range of 1000 to 10000 nM. The same molecule registered a 50% inhibitory concentration (IC50) in test [2] of 1000 to 10000 nM.
As for `O=C(Cc1ccc(Cl)cc1)Nc1cccn2c(-c3ccncc3)cnc12` [Compound 234], the EC50 in test [1] is 1000 to 10000 nM. In addition, the IC50 in test [2] was in the range of 1000 to 10000 nM.
Molecule `CNc1ccc2ncc(-c3cccc(NC(=O)C4CCCO4)c3)n2c1` (stereo not shown) [Compound 236] returned an EC50 in test [1] of 1000 to 10000 nM. Moreover, the IC50 in test [2] is below 1000 nM.
In the same order, the values of `CN(C(=O)OC(C)(C)C)c1ccc2ncc(-c3cccc(NC(=O)COC4CCOC4)c3)n2c1` (stereo not shown) [Compound 237] are below 1000 nM and below 1000 nM.
For `CN(C(=O)OC(C)(C)C)c1ccc2ncc(-c3cccc(NC(=O)[C@@H]4CCOC4)c3)n2c1` [Compound 238], in that order: below 1000 nM and below 1000 nM.
For `CN(C(=O)OC(C)(C)C)c1ccc2ncc(-c3cccc(NC(=O)[C@H]4CCOC4)c3)n2c1` [Compound 239], in that order: below 1000 nM and below 1000 nM.
In the case of `CC(C)(C)OC(=O)Nc1ccc2ncc(-c3cccc(NC(=O)COCCOCc4ccccc4)c3)n2c1` [Compound 240], the EC50 in test [1] was below 1000 nM. The molecule also yielded an IC50 in test [2] below 1000 nM.
In test [1], `CNc1ccc2ncc(-c3cccc(NC(=O)COCCOCc4ccccc4)c3)n2c1` [Compound 241] showed an EC50 below 1000 nM. In test [2], the IC50 was below 1000 nM.
For `CN(C(=O)OC(C)(C)C)c1ccc2ncc(-c3cccc(NC(=O)COCCOCc4ccccc4)c3)n2c1` [Compound 244], the EC50 in test [1] was below 1000 nM. Also, the IC50 in test [2] fell in the range of 1000 to 10000 nM.
In the same order, the values of `CN(C(=O)OC(C)(C)C)c1ccc2ncc(-c3cccc(NC(=O)C4CCCO4)c3)n2c1` (stereo not shown) [Compound 245] are below 1000 nM and 1000 to 10000 nM.
`CN(C(=O)OC(C)(C)C)c1ccc2ncc(-c3cccc(C(=O)NC[C@@H]4CCO4)c3)n2c1` [Compound 246] showed an EC50 in test [1] of 1000 to 10000 nM. In addition, in test [2], the IC50 fell in the range of 1000 to 10000 nM.
For the molecule `CC(C)OCCOCC(=O)Nc1cccc(-c2cnc3ccc(N(C)C(=O)OC(C)(C)C)cn23)c1` [Compound 247], the EC50 in test [1] was below 1000 nM. Further, the IC50 in test [2] was 1000 to 10000 nM.
Molecule `CN(C(=O)OC(C)(C)C)c1ccc2ncc(-c3cccc(NC(=O)COCc4ccccc4)c3)n2c1` [Compound 248] had an EC50 in test [1] below 1000 nM. The same molecule had an IC50 in test [2] of 1000 to 10000 nM.
In the same order, the values of `CN(C(=O)OC(C)(C)C)c1ccc2ncc(-c3cccc(NC(=O)c4ccccc4)c3)n2c1` [Compound 249] are below 1000 nM and 1000 to 10000 nM.
In the same order, the values of `CNc1ccc2ncc(-c3cccc(NC(=O)c4ccccc4)c3)n2c1` [Compound 251] are 1000 to 10000 nM and 1000 to 10000 nM.
For `CNc1ccc2ncc(-c3cccc(CNC(=O)c4ccccc4)c3)n2c1` [Compound 253], in that order: 1000 to 10000 nM and 1000 to 10000 nM.
`CN(C(=O)OC(C)(C)C)c1ccc2ncc(-c3cccc(CNC(=O)OC(C)(C)C)c3)n2c1` [Compound 254]: the EC50 in test [1] fell in the range of 1000 to 10000 nM. This molecule returned an IC50 in test [2] below 1000 nM.
In the same order, the values of `CNc1ccc2ncc(-c3cccc4[nH]ccc34)n2c1` [Compound 255] are 1000 to 10000 nM and below 1000 nM.
In the same order, the values of `CN(C(=O)OC(C)(C)C)c1ccc2ncc(-c3cccc4c3CNC4=O)n2c1` [Compound 256] are 1000 to 10000 nM and below 1000 nM.
In the same order, the values of `CN(C(=O)OC(C)(C)C)c1ccc2ncc(-c3cccc4cn[nH]c34)n2c1` [Compound 259] are 1000 to 10000 nM and below 1000 nM.
Regarding `CN(C(=O)OC(C)(C)C)c1ccc2ncc(-c3cccc4c3CC(=O)N4)n2c1` [Compound 260], the EC50 in test [1] was 1000 to 10000 nM. Besides, in test [2], the IC50 is below 1000 nM.
Molecule `CN(C(=O)OC(C)(C)C)c1ccc2ncc(-c3cccc4ncccc34)n2c1` [Compound 262] registered a concentration giving a half-maximal response (EC50) in test [1] below 1000 nM. In test [2], the 50% inhibitory concentration (IC50) was below 1000 nM.
On to `CN(C(=O)OC(C)(C)C)c1ccc2ncc(-c3cccc(O)c3)n2c1` [Compound 272], for which the EC50 in test [1] lay within 1000 to 10000 nM. In test [2], this molecule came in with an IC50 of 1000 to 10000 nM.
Molecule `CNc1ccc2ncc(-c3cccc(C(=O)OC)c3)n2c1` [Compound 273] displayed an EC50 in test [1] of 1000 to 10000 nM. For the same molecule, the IC50 in test [2] lay in the range of 1000 to 10000 nM.
Take `CNc1ccc2ncc(-c3cccc(CN)c3)n2c1` [Compound 274]: the EC50 in test [1] fell in the range of 1000 to 10000 nM. The same molecule registered an IC50 in test [2] of 1000 to 10000 nM.
The molecule `CN(C(=O)OC(C)(C)C)c1ccc2ncc(-c3cccc4[nH]ccc34)n2c1` [Compound 275] registered an EC50 in test [1] of 1000 to 10000 nM. The IC50 in test [2] lay in the range of 1000 to 10000 nM.
Turning to `CNC(=O)c1cccc(-c2cnc3ccc(N(C)C(=O)OC(C)(C)C)cn23)c1` [Compound 276], the EC50 in test [1] lay in the range of 1000 to 10000 nM. Besides, the IC50 in test [2] is 1000 to 10000 nM.
`CN(C(=O)OC(C)(C)C)c1ccc2ncc(-c3ccncc3F)n2c1` [Compound 278] registered an EC50 in test [1] of 1000 to 10000 nM. Moreover, the IC50 in test [2] is 1000 to 10000 nM.
`COC(=O)c1cccc(-c2cnc3ccc(N(C)C(=O)C(C)(C)C)cn23)c1` [Compound 301] displayed an EC50 in test [1] of 1000 to 10000 nM. Moreover, the IC50 in test [2] is below 1000 nM.

Broadly, the EC50 is the concentration needed to bring the measured effect to its halfway point. A low value points to higher potency in that assay. Usually IC50 stands for the concentration that gives 50% inhibition. Read a high IC50 as weaker potency.
